Source: patent US20240000767A1, “COMBINATION OF AN ALPHA2-ADRENOCEPTOR SUBTYPE C (ALPHA-2C) ANTAGONIST WITH A TASK1/3 CHANNEL BLOCKER FOR THE TREATMENT OF SLEEP APNEA” (Bayer Aktiengesellschaft, priority 2020, published 2024)
One block for each molecule: values may come before it.

Tests used:
[1] = test system: anaesthetized, spontaneously breathing pigs; test: Pig model of obstructive sleep apnea (OSA): upper airway collapsibility under negative pressure; type: in vivo, German Landrace pigs
Excerpt: B-3 Animal Model of Obstructive Sleep Apnoea in the Pig
Using negative pressure, it is possible to induce collapse and thus obstruction of the upper respiratory tract in anesthetized, spontaneously breathing pigs [Wirth et al., Sleep 36, 699-708 (2013)].
German Landrace pigs are used for the model. The pigs are anesthetized and tracheotomized. One cannula each is inserted into the rostral and the caudal part of the trachea. Using a T connector, the rostral cannula is connected on the one hand to a device generating negative pressures and on the other hand to the caudal cannula. Using a T connector, the caudal cannula is connected to the rostral cannula and to a tube which allows spontaneous breathing circumventing the upper respiratory tract. By appropriate closing and opening of the tubes it is thus possible for the pig to change from normal nasal breathing to breathing via the caudal cannula during the time when the upper respiratory tract is isolated and connected to the device for generating negative pressures. The muscle activity of the musculus genioglossus is recorded by electromyogram (EMG).
(§1) At certain points in time, the collapsibility of the upper respiratory tract is tested by having the pig breathe via the caudal cannula and applying negative pressures of −50, −100 and −150 cm water head (cmH2O) to the upper respiratory tract. This causes the upper respiratory tract to collapse, which manifests itself in an interruption of the airflow and a pressure drop in the tube system. This test is conducted prior to the administration of the test substance and at certain intervals after the administration of the test substance. An appropriately effective test substance can prevent this collapse of the respiratory tract in the inspiratory phase.
Administration of the test substance can be intranasal, intravenous, subcutaneous, intraperitoneal, intraduodenal or intragastral.
The therapeutic potential of the combination of an α2-Adrenoceptor subtype C (alpha-2C) antagonists with a TASK⅓ channel blocker according to the present invention in sleep apnea can be assessed preclinically in a pig model of obstructive sleep apnea (OSA).
Using negative pressure, it is possible to induce collapse and thus obstruction of the upper respiratory tract in anaesthetized, spontaneously breathing pigs (Wirth K. J. et al., Sleep 36(5) (2013) pp. 699-708).
German Landrace pigs are used for the model. The pigs are anaesthetized and tracheotomized. Two tracheal cannulas are inserted into the trachea, one into the rostral part and the other into the caudal part of the trachea. Using a connection piece, the rostral cannula is connected to a tube to the negative pressure device and to the distal tracheal cannula. The distal tracheal cannula is additionally connected to a tube with an open end to atmosphere via a connection piece that served for free tracheal breathing, circumventing the upper airway. By appropriate opening and clamping of those tubes breathing can be switched from nasal breathing to breathing through the caudal tracheal cannula, circumventing the upper airway, and the (isolated) upper airway can be connected to the negative pressure device, causing airflow in the inspiratory direction.
as §1, with “(cm H2O)” for “(cmH2O)”

[2] = biological target: human ADRA2C receptor (Homo sapiens (Human), UniProt P18825); test: In vitro activity assay to determine the inhibition of recombinant ADRA2C (CHO-K1 cells, aequorin bioluminescence); type: cell-based; settings: inhibition of noradrenaline-induced bioluminescence signal; some mean values from multiple determinations; read-out: ARα2C IC50
Sequence of human ADRA2C receptor (P18825 whole entry): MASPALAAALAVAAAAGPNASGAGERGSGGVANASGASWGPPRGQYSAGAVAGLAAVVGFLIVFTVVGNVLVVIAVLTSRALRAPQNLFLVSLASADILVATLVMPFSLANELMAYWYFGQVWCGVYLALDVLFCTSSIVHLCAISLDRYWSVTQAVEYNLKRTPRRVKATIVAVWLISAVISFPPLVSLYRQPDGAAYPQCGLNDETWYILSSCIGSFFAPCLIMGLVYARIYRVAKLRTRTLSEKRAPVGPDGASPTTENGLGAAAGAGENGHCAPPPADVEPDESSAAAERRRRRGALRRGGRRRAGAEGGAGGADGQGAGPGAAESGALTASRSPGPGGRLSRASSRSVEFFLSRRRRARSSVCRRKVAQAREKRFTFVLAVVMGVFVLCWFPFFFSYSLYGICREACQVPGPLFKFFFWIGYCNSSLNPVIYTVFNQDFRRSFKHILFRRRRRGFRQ
Outline: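 IC50 is the concentration halving the agonist (noradrenaline)-evoked rise in aequorin luminescence, fitted by 4-parameter Hill function. Read in stable Gαq/aequorin CHO-K1 cells expressing recombinant human ADRA2C.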

[3] = 15 μg/kg i.v. bolus then 5 μg/kg/h i.v. infusion for four hours from 0 min, time 0 min
[4] = 15 μg/kg i.v. bolus then 5 μg/kg/h i.v. infusion for four hours from 0 min, time 30 min
[5] = 15 μg/kg i.v. bolus then 5 μg/kg/h i.v. infusion for four hours from 0 min, time 60 min
[6] = 15 μg/kg i.v. bolus then 5 μg/kg/h i.v. infusion for four hours from 0 min, time 90 min
[7] = 15 μg/kg i.v. bolus then 5 μg/kg/h i.v. infusion for four hours from 0 min, time 120 min
[8] = 0.3 μg intranasal at 0 min, time 0 min
[9] = 0.3 μg intranasal at 0 min, time 10 min
[10] = 0.3 μg intranasal at 0 min, time 30 min
[11] = 0.3 μg intranasal at 0 min, time 60 min
[12] = 0.3 μg intranasal at 0 min, time 90 min

Structure (SMILES): COCC1CCCN(C2CCN(c3ncc(C(=O)NCc4ncc(F)cc4F)s3)CC2)C1 (stereo not drawn)
Percent pigs without collaps −50 cm H2O [1, 3]: 0%
Percent pigs without collaps −100 cm H2O [1, 3]: 0%
Percent pigs without collaps −150 cm H2O [1, 3]: 0%
Percent pigs without collaps −50 cm H2O [1, 4]: 0%
Percent pigs without collaps −100 cm H2O [1, 4]: 0%
Percent pigs without collaps −150 cm H2O [1, 4]: 0%
Percent pigs without collaps −50 cm H2O [1, 5]: 0%
Percent pigs without collaps −100 cm H2O [1, 5]: 0%
Percent pigs without collaps −150 cm H2O [1, 5]: 0%
Percent pigs without collaps −50 cm H2O [1, 6]: 50%
Percent pigs without collaps −100 cm H2O [1, 6]: 50%
Percent pigs without collaps −150 cm H2O [1, 6]: 50%
Percent pigs without collaps −50 cm H2O [1, 7]: 0%
Percent pigs without collaps −100 cm H2O [1, 7]: 0%
Percent pigs without collaps −150 cm H2O [1, 7]: 0%
time points at which upper airway collapsibility was inhibited at all negative pressures of −50, −100 and −150 cm H2O in all pigs ([1]; third set, 15 μg/kg i.v. bolus followed by i.v. infusion of 5 μg/kg/h for four hours, alone): at no time point

Structure (SMILES): COc1ccc(Cl)c(C(=O)N2C3CCC2CN(Cc2c(-c4ccc(C(C)C)cc4)nc4ncccn24)C3)n1 [(3-chloro-6-methoxypyridin-2-yl)(3-{[2-(4-isopropylphenyl)imidazo[1,2-a]pyrimidin-3-yl]methyl}-3,8-diazabicyclo[3.2.1]oct-8-yl)methanone]
Percent pigs without collaps −50 cm H2O [1, 8]: 0%
Percent pigs without collaps −100 cm H2O [1, 8]: 0%
Percent pigs without collaps −150 cm H2O [1, 8]: 0%
Percent pigs without collaps −50 cm H2O [1, 9]: 33%
Percent pigs without collaps −100 cm H2O [1, 9]: 33%
Percent pigs without collaps −150 cm H2O [1, 9]: 0%
Percent pigs without collaps −50 cm H2O [1, 10]: 0%
Percent pigs without collaps −100 cm H2O [1, 10]: 0%
Percent pigs without collaps −150 cm H2O [1, 10]: 0%
Percent pigs without collaps −50 cm H2O [1, 11]: 0%
Percent pigs without collaps −100 cm H2O [1, 11]: 0%
Percent pigs without collaps −150 cm H2O [1, 11]: 0%
Percent pigs without collaps −50 cm H2O [1, 12]: 0%
Percent pigs without collaps −100 cm H2O [1, 12]: 0%
Percent pigs without collaps −150 cm H2O [1, 12]: 0%

Structure (SMILES): COc1cccc(C(=O)N2CCN(Cc3c(-c4ccc(Cl)cc4)nc4ccccn34)CC2)n1 [(4-{[2-(4-chlorophenyl)imidazo[1,2-a]pyridin-3-yl]methyl}piperazin-1-yl)(6-methoxypyridin-2-yl)methanone]
Percent pigs without collaps −50 cm H2O [1, 8]: 0%
Percent pigs without collaps −100 cm H2O [1, 8]: 0%
Percent pigs without collaps −150 cm H2O [1, 8]: 0%
Percent pigs without collaps −50 cm H2O [1, 9]: 0%
Percent pigs without collaps −100 cm H2O [1, 9]: 0%
Percent pigs without collaps −150 cm H2O [1, 9]: 0%
Percent pigs without collaps −50 cm H2O [1, 10]: 0%
Percent pigs without collaps −100 cm H2O [1, 10]: 0%
Percent pigs without collaps −150 cm H2O [1, 10]: 0%
Percent pigs without collaps −50 cm H2O [1, 11]: 0%
Percent pigs without collaps −100 cm H2O [1, 11]: 0%
Percent pigs without collaps −150 cm H2O [1, 11]: 0%

Structure (SMILES): O=C(NCc1ncc(F)cc1F)c1cnc(N2CCC(N3CCCCC3)CC2)s1 [Example 128, 2-([1,4′-Bipiperidin]-1′-yl)-N-[(3,5-difluoropyridin-2-yl)methyl]-1,3-thiazole-5-carboxamide]
IC50 [2]: 550 nM

Structure (SMILES): O=C(NCc1ncc(F)cc1F)c1cnc(N2CCC(N3CCCC4(COC4)C3)CC2)s1 [Example 136]
IC50 [2]: 320 nM

Structure (SMILES): O=C(NCc1ncc(F)cc1F)c1cnc(N2CCC(N3CCCC(C4CC4)C3)CC2)s1 (stereo not drawn) [Example 137]
IC50 [2]: 19 nM

Structure (SMILES): CC(C)(C)C1CCCN(C2CCN(c3ncc(C(=O)NCc4ncc(F)cc4F)s3)CC2)C1 (stereo not drawn) [Example 149]
IC50 [2]: 35 nM

Structure (SMILES): C[C@@H]1CCCN(C2CCN(c3ncc(C(=O)N(C)Cc4ncc(F)cc4F)s3)CC2)C1 [Example 150]
IC50 [2]: 200 nM

Structure (SMILES): C[C@@H]1CCCN(C2CCN(c3ncc(C(=O)NCc4ccccc4Cl)s3)CC2)C1 [Example 151]
IC50 [2]: 170 nM

More lines, in order of falling IC50 [2], values ahead:

IC50 [2]: 10 nM
Structure (SMILES): C[C@@H]1CCCN(C2CCN(c3ncc(C(=O)NC4(c5ncc(F)cc5F)CC4)s3)CC2)C1 [Example 129, N-[1-(3,5-Difluoropyridin-2-yl)cyclopropyl]-2-[(3R)-3-methyl[1,4′-bipiperidin]-1′-yl]-1,3-thiazole-5-carboxamide]

IC50 [2]: 8.7 nM
Structure (SMILES): O=C(NCc1ncc(F)cc1F)c1cnc(N2CCC(N3CCc4cccc(Cl)c4C3)CC2)s1 [Example 141]

IC50 [2]: 6.7 nM
Structure (SMILES): O=C(NCc1ncc(F)cc1F)c1cnc(N2CCC(N3CCc4c(Cl)cccc4C3)CC2)s1 [Example 142]

IC50 [2]: 6.5 nM
Structure (SMILES): O=C(NCc1ncc(F)cc1F)c1cnc(N2CCC(N3CCCC(C4CCC4)C3)CC2)s1 (stereo not drawn) [Example 138]

IC50 [2]: 1.8 nM
Structure (SMILES): O=C(NCc1ncc(F)cc1F)c1cnc(N2CCC(N3CCc4cccc(F)c4C3)CC2)s1 [Example 144]

IC50 [2]: 1.72 nM
Structure (SMILES): Cc1ccc2c(c1)CCN(C1CCN(c3ncc(C(=O)NCc4ncc(F)cc4F)s3)CC1)C2 [Example 146]

IC50 [2]: 1.3 nM
Structure (SMILES): COCCC1CCCN(C2CCN(c3ncc(C(=O)NCc4ncc(F)cc4F)s3)CC2)C1 (stereo not drawn) [Example 148]

IC50 [2]: 1 nM
Structure (SMILES): COc1ccc2c(c1)CCN(C1CCN(c3ncc(C(=O)NCc4ncc(F)cc4F)s3)CC1)C2 [Example 145]

IC50 [2]: 0.74 nM
Structure (SMILES): O=C(NCc1ncc(F)cc1F)c1cnc(N2CCC(N3CCCC4(C3)CC4(F)F)C(F)C2)s1 (stereo not drawn) [Example 134, diamix-2-[4-(1,1-Difluoro-5-azaspiro[2.5]octan-5-yl)-3-fluoropiperidin-1-yl]-N-[(3,5-difluoropyridin-2-yl)methyl]-1,3-thiazole-5-carboxamide]

IC50 [2]: 0.65 nM
Structure (SMILES): O=C(NCc1ncc(F)cc1F)c1cnc(N2CCC(N3CCc4ccc(Cl)cc4C3)CC2)s1 [Example 139]

IC50 [2]: 0.54 nM
Structure (SMILES): CCc1nc(N2CCC(N3CCC[C@@H](C)C3)CC2)sc1C(=O)NCc1ncc(F)cc1F [Example 130, N-[(3,5-Difluoropyridin-2-yl)methyl]-4-ethyl-2-[(3R)-3-methyl[1,4′-bipiperidin]-1′-yl]-1,3-thiazole-5-carboxamide]
